From BindingDB's records for doi:10.1016/S0960-894X(01)80277-8 (1994) come the findings set out here.

The test in a line: Binding to delta opioid receptor by using [3H]DPDPE as radioligand in guinea pig brain minus cerebellum.

Take `CC(=O)c1ccc2c3c1O[C@H]1[C@@H](O)C=C[C@H]4[C@@H](C2)N(C)CC[C@@]341` [1-[14-hydroxy-4-methyl-(1S,5R,13R,14S,17R)-12-oxa-4-azapentacyclo[9.6.1.01,13.05,17.07,18]octadeca-7(18),8,10,15-tetraen-10-yl]-1-ethanone]: the IC50 came out at 7.9 µM. For `CN1CC[C@]23c4c5ccc(-c6ccoc6)c4O[C@H]2[C@@H](O)C=C[C@H]3[C@H]1C5` [10-(3-furyl)-4-methyl-(1S,5R,13R,14S,17R)-12-oxa-4-azapentacyclo[9.6.1.01,13.05,17.07,18]octadeca-7(18),8,10,15-tetraen-14-ol], the IC50 was 7.4 µM.
